Data from patent US4169096A, “Antibiotic compounds” (priority 1977, dated 1979).
Values after ≈ are worked out from the molar mass of the structure shown. Counter-ions that a name gives are not always drawn. Like-named read-outs stand apart in the source and are kept apart here.

How the values were obtained:
[1] = in vivo
[2] = system: B. fragilis A20926; experiment: Localized infection with B. fragilis in mice; assay type: in vivo; conditions: for mean score: control 4.2; for sum of score: control 21; for infectivity level: control 100%
[3] = Acute toxicity
[4] = system: Pseudomonas aeruginosa A9843; experiment: MIC, serial two-fold agar dilution, aerobic bacteria; assay type: cell-based; conditions: test medium not given
[5] = system: aerobic and anaerobic bacteria; experiment: Antibacterial activity and spectrum (in words); assay type: cell-based
[6] = system: Escherichia coli K-12 A9632; experiment: MIC, serial two-fold agar dilution, aerobic bacteria; conditions: K12A9632
[7] = system: Klebsiella pneumoniae A9678; experiment: as above; assay type: cell-based; conditions: Nutrient agar (Eiken), read-out: MIC
[8] = system: C. perfringens A9635; experiment: microbe, parasite or virus in culture; assay type: cell-based; conditions: Clostridium perfringens, A9635, 18 h
[9] = system: C. perfringens or S. pyrogenes; assay type: in vivo, mice; conditions: subcutaneous and oral
[10] = system: Bacillus subtilis PCI-219; experiment: MIC, serial two-fold agar dilution, aerobic bacteria; assay type: cell-based
[11] = system: Staphylococcus aureus #52-34; experiment: as above; assay type: cell-based
[12] = system: B. fragilis A20928-1; experiment: Inoculum size effect on MIC, GAM agar; assay type: cell-based; conditions: Bacteroides fragilis, A209281; inoculum size 1.2 × 10^6 cell/ml
[13] = system: Peptostreptococcus anaerobius B43; assay type: cell-based; conditions: GAM agar medium (Nissui)
[14] = system: Staphylococcus aereus Smith; experiment: MIC, serial two-fold agar dilution, aerobic bacteria; assay type: cell-based
[15] = system: Hemophilus influenzae A20188; experiment: as above; assay type: cell-based; conditions: Haemophilus influenzae, GC medium (Eiken)
[16] = system: Diplococcus pneumoniae A9585; experiment: as above; assay type: cell-based; conditions: Streptococcus pneumoniae, GC medium (Eiken)
[17] = system: C. perfringens A9635; experiment: microbe, parasite or virus in culture; assay type: cell-based; conditions: Clostridium perfringens, A9635, read-out: MIC in GAM broth, inoculum size […] 10^6 cell/ml
[18] = system: Proteus morganii A9553; experiment: MIC, serial two-fold agar dilution, aerobic bacteria; assay type: cell-based; conditions: Morganella morganii, Nutrient agar (Eiken)
[19] = system: two anaerobic organisms (B. fragilis and C. perfringens); assay type: cell-based; conditions: broth dilution method
[20] = system: S. pyogenes A20201; experiment: Bactericidal activity (MIC & MBC); assay type: cell-based; conditions: Streptococcus pyogenes, A20201, 18 h
[21] = system: Escherichia coli Juhl A15119; experiment: MIC, serial two-fold agar dilution, aerobic bacteria; assay type: cell-based; conditions: JUHLA15119, Nutrient agar (Eiken), read-out: MIC
[22] = system: B. fragilis A20928-1; experiment: Bactericidal activity (MIC & MBC); assay type: cell-based; conditions: Bacteroides fragilis, A209281, inoculum size 2.8 × 10^6 cell/ml; for MIC: broth; for MBC: growth of less than 100 colonies per plate, 18 hours at 37° C.
[23] = system: Proteus mirabilis A9554; experiment: MIC, serial two-fold agar dilution, aerobic bacteria; assay type: cell-based; conditions: Nutrient agar (Eiken)
[24] = Stability in solution; assay type: physicochemical
[25] = system: Neisseria gonorrhoeae A20154; experiment: MIC, serial two-fold agar dilution, aerobic bacteria; assay type: cell-based; conditions: GC medium (Eiken)
[26] = system: C. perfringens A9635; experiment: animal or person; assay type: in vivo, mice; conditions: Clostridium perfringens, A9635, in Mus musculus, 120 h, read-out: PD50
[27] = system: B. fragilis A20928-1; experiment: Inoculum size effect on MIC, GAM broth; assay type: cell-based; conditions: Bacteroides fragilis
[28] = system: Neisseria gonorrhoeae A15112; experiment: MIC, serial two-fold agar dilution, aerobic bacteria; assay type: cell-based; conditions: GC medium (Eiken)
[29] = system: Serratia marcescens A20019; experiment: as above; assay type: cell-based; conditions: Nutrient agar (Eiken), read-out: MIC
[30] = system: Staphylococcus aureus 209P; experiment: as above; assay type: cell-based; conditions: Nutrient agar (Eiken)
[31] = system: Hemophilus influenzae A9832; experiment: as above; assay type: cell-based; conditions: Haemophilus influenzae, GC medium (Eiken)
[32] = Solubility; assay type: physicochemical
[33] = system: Streptococcus pyogenes A20201; experiment: MIC, serial two-fold agar dilution, aerobic bacteria; assay type: cell-based; conditions: GC medium (Eiken)
[34] = system: Streptococcus pyogenes A9604; experiment: as above; assay type: cell-based; conditions: GC medium (Eiken)
[35] = system: Neisseria meningitidis A20049; experiment: as above; assay type: cell-based; conditions: GC medium (Eiken), read-out: MIC
[36] = system: two anaerobic and one aerobic organisms; experiment: Bactericidal potential (in words); assay type: cell-based
[37] = system: S. pyogenes A20201; experiment: Systemic infection with S. pyogenes in mice; assay type: in vivo; conditions: Streptococcus pyogenes, A20201, 120 h, just before challenge, determined after 5 days, read-out: PD50
[38] = system: Bacillus cereus ATCC 10702 A; experiment: MIC, serial two-fold agar dilution, aerobic bacteria; assay type: cell-based; conditions: ATCC10702, Nutrient agar (Eiken), read-out: MIC
[39] = system: aerobic organisms; experiment: Antibacterial activity against aerobic bacteria (in words); assay type: cell-based; conditions: Bacillus species, streptococci, Neisseria meningtidis, N. gonorrhoeae, Hemophilus influenzae
[40] = system: Sarcina lutea PCI-1001; experiment: MIC, serial two-fold agar dilution, aerobic bacteria; assay type: cell-based; conditions: Micrococcus luteus, PCI1001
[41] = system: Micrococcus flavus; experiment: as above; assay type: cell-based; conditions: Nutrient agar (Eiken), read-out: MIC
[42] = system: Streptococcus viridans A21354; experiment: as above; assay type: cell-based; conditions: GC medium (Eiken)
[43] = pKa' by titration in aqueous ethanol; assay type: physicochemical; conditions: 46% aqueous ethanol
[44] = system: Neisseria meningitidis A21496; experiment: MIC, serial two-fold agar dilution, aerobic bacteria; assay type: cell-based; conditions: GC medium (Eiken)
[45] = system: C. perfringens A9635; experiment: microbe, parasite or virus in culture; assay type: cell-based, Clostridium perfringens
[46] = system: bacterial RNA polymerase; conditions: Antimicrobial Agents and Chemotherapy 1976, page 618; cited from earlier work
[47] = A209281, read-out: MIC in GAM broth, inoculum size […] 10^6 cell/ml
[48] = Nutrient agar (Eiken), read-out: MIC

SMILES: COC(=O)C1C(C)OC2(C)CC(=O)C3OC12OC(C(C)/C=C(C)/C=C/C(=O)C1=C(O)CNC1=O)C3C (centres unmarked) [Bu-2313B (Na salt)]
- LD50 ([1]; po, LD50, po): 280 mg/kg
- mean score ([2]; oral, 6.3 × 5 mg/kg): 3.4
- sum of score ([2]; oral, 6.3 × 5 mg/kg): 17
- infectivity level ([2]; oral, 6.3 × 5 mg/kg): 81.0%
- mean score ([2]; oral, 25 × 5 mg/kg): 3.0
- sum of score ([2]; oral, 25 × 5 mg/kg): 15
- infectivity level ([2]; oral, 25 × 5 mg/kg): 71.4%
- mean score ([2]; oral, 100 × 5 mg/kg): 2.4
- sum of score ([2]; oral, 100 × 5 mg/kg): 12
- infectivity level ([2]; oral, 100 × 5 mg/kg): 57.1%
- mean score ([2]; oral, […] 5 mg/kg): 4.0
- sum of score ([2]; oral, […] 5 mg/kg): 20
- infectivity level ([2]; oral, […] 5 mg/kg): 95.2%
- mean score ([2]; subcutaneous, 0.8 × 5 mg/kg): 4.0
- sum of score ([2]; subcutaneous, 0.8 × 5 mg/kg): 20
- infectivity level ([2]; subcutaneous, 0.8 × 5 mg/kg): 95.2%
- mean score ([2]; subcutaneous, 3.1 × 5 mg/kg): 3.4
- sum of score ([2]; subcutaneous, 3.1 × 5 mg/kg): 17
- infectivity level ([2]; subcutaneous, 3.1 × 5 mg/kg): 81.0%
- mean score ([2]; subcutaneous, 50 × 5 mg/kg): 2.2
- sum of score ([2]; subcutaneous, 50 × 5 mg/kg): 11
- infectivity level ([2]; subcutaneous, 50 × 5 mg/kg): 52.4%
- mean score ([2]; subcutaneous, […] 5 mg/kg): 2.8
- sum of score ([2]; subcutaneous, […] 5 mg/kg): 14
- infectivity level ([2]; subcutaneous, […] 5 mg/kg): 66.7%
- LD50 ([3]; ip): 55 mg/kg
- LD50 ([3]; sc): 200 mg/kg

SMILES: COC(=O)C1C(C)OC2(C)CC(=O)C3OC12OC(C(C)/C=C(C)/C=C/C(=O)C1=C(O)CNC1=O)C3C (centres unmarked) [Bu-2313B]
- MIC [4]: > 100 µg/mL
- antibacterial activity [5]: exhibit antibacterial activity against a variety of anaerobic bacteria and some aerobic bacteria
- comparative activity and antibacterial spectrum ([5]; in vitro): very similar to those of tirandamycin
- MIC [6]: > 100 µg/mL
- MIC [7]: > 100 µg/mL
- MBC [8]: 12.5 µg/mL (≈ 24.8 µM)
- protection against systemic infections [9]: fairly good protection
- MIC ([10]; PCI219, Nutrient agar (Eiken), read-out: MIC): 1.6 µg/mL (≈ 3.18 µM)
- MIC [11]: 12.5 µg/mL (≈ 24.8 µM)
- MIC [12]: 0.05 µg/mL (≈ 0.0993 µM)
- MIC [13]: 0.4 µg/mL (≈ 0.794 µM)
- MIC [14]: 12.5 µg/mL (≈ 24.8 µM)
- MIC [15]: 0.8 µg/mL (≈ 1.59 µM)
- MIC [16]: 0.4 µg/mL (≈ 0.794 µM)
- MIC [17]: 25 µg/mL (≈ 49.6 µM)
- MIC [18]: > 100 µg/mL
- influence of inoculum size on MIC [19]: greatly affected by inoculum size
- MBC [20]: 12.5 µg/mL (≈ 24.8 µM)
- MIC [21]: > 100 µg/mL
- MIC [22]: 0.006 µg/mL (≈ 0.0119 µM)
- MBC [22]: > 0.8 µg/mL
- MIC [23]: > 100 µg/mL
- stability ([24]; acidic solution): stable
- stability ([24]; alkaline solution, N/10 NaOH, room temperature, overnight): inactivated
- LD50 ([1]; sc, LD50, sc): 225 mg/kg
- MIC [25]: 0.8 µg/mL (≈ 1.59 µM)
- ED50 ([26]; po): 30 mg/kg
- ED50 ([26]; sc): 6.25 mg/kg
- MIC ([27]; A209281, inoculum size […] 10^7 cell/ml, read-out: MIC in GAM broth): 0.4 µg/mL (≈ 0.794 µM)
- MIC [27, 47]: 0.013 µg/mL (≈ 0.0258 µM)
- MIC [28]: 0.8 µg/mL (≈ 1.59 µM)
- MIC [29]: > 100 µg/mL
- MIC [30]: 25 µg/mL (≈ 49.6 µM)
- MIC [31]: 0.4 µg/mL (≈ 0.794 µM)
- solubility ([32]; hexane and alkaline water): slightly soluble
- solubility ([32]; most organic solvents such as lower alcohols, ethyl acetate, chloroform and benzene): readily soluble
- solubility ([32]; water): practically insoluble
- MIC [33]: 0.4 µg/mL (≈ 0.794 µM)
- MIC [34]: 0.4 µg/mL (≈ 0.794 µM)
- MIC [35]: 0.8 µg/mL (≈ 1.59 µM)
- antibacterial action [36]: bacteriostatic rather than bactericidal
- ED50 ([37]; po, NA: no activity): 25 mg/kg
- ED50 ([37]; sc): 9 mg/kg
- MIC [38]: 0.8 µg/mL (≈ 1.59 µM)
- susceptibility of aerobic strains [39]: susceptible
- MIC [40]: 12.5 µg/mL (≈ 24.8 µM)
- LD50 ([3]; ip, listed as Bu-2313B (free acid)): 115 mg/kg
- comparative acute toxicity ([3]; sc, ip and oral LD50): significantly lower toxicity than Bu-2313A
- MIC [41]: 25 µg/mL (≈ 49.6 µM)
- MIC [42]: 0.4 µg/mL (≈ 0.794 µM)
- pKa [43]: 4.9
- MIC [44]: 1.6 µg/mL (≈ 3.18 µM)

SMILES: CC(/C=C/C(=O)C1=C(O)CNC1=O)=C\C(C)C1OC2(C)OC(C(=O)C3OC32C)C1C (centres unmarked) [Tirandamycin, reference compound]
- MIC [4]: > 100 µg/mL
- MIC [6]: > 100 µg/mL
- MIC [7]: > 100 µg/mL
- MBC [8]: 3.1 µg/mL (≈ 7.43 µM)
- MIC ([10]; PCI219): 3.1 µg/mL (≈ 7.43 µM)
- MIC [11, 48]: 50 µg/mL (≈ 120 µM)
- MIC ([45]; Clostridium perfringens, A9635, read-out: MIC in GAM agar): 0.8 µg/mL (≈ 1.92 µM)
- MIC in GAM agar ([45]; inoculum size 7 × 10^6 cell/ml): 0.8 µg/mL (≈ 1.92 µM)
- MIC [14, 48]: > 100 µg/mL
- MIC [15]: 0.8 µg/mL (≈ 1.92 µM)
- MIC [17]: 12.5 µg/mL (≈ 29.9 µM)
- MIC [18]: > 100 µg/mL
- MBC [20]: > 12.5 µg/mL
- MIC [21]: > 100 µg/mL
- MIC [22]: 0.025 µg/mL (≈ 0.0599 µM)
- MBC [22]: > 0.8 µg/mL
- MIC [23]: > 100 µg/mL
- ED50 ([26]; po): 60 mg/kg
- ED50 ([26]; sc): 17 mg/kg
- MIC [27, 47]: 0.006 µg/mL (≈ 0.0144 µM)
- MIC [29]: > 100 µg/mL
- MIC [30]: 100 µg/mL (≈ 240 µM)
- MIC [33]: 0.8 µg/mL (≈ 1.92 µM)
- MIC [34]: 0.8 µg/mL (≈ 1.92 µM)
- MIC [35]: 0.8 µg/mL (≈ 1.92 µM)
- ED50 ([37]; po, NA: no activity): 50 mg/kg
- ED50 ([37]; sc): 9.7 mg/kg
- inhibition of bacterial RNA polymerase [46]: inhibitor of bacterial RNA polymerase in a manner similar to streptolydigin
- MIC [40, 48]: 50 µg/mL (≈ 120 µM)
- MIC [41]: 25 µg/mL (≈ 59.9 µM)
- MIC [44]: 0.8 µg/mL (≈ 1.92 µM)
